Tests used:
Tyk2 = Tyk2 (Homo sapiens (Human), UniProt P29597); assay: Biochemical Tyk2 kinase assay (LanthaScreen)
Summary of the method: (§1)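 GST-JAK + GFP-STAT1 peptide, HEPES pH 7.5/MgCl2/EGTA/Brij-35 buffer; cpd preincubation 1 h RT; ATP start, 1 h RT; stop with 10 mM EDTA + 2 nM Tb-anti-pSTAT1; TR-FRET 520/495. 4-parameter IC50 → pKi (Cheng-Prusoff).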

JAK3 = JAK3 (Homo sapiens (Human), UniProt P52333); assay: Biochemical JAK3 kinase assay (LanthaScreen); details: for JAK3 (pKi)-JAK1 (pKi): selectivity JAK3 over JAK1, difference of pKi
Summary of the method: as §1

[1] = tested on: IL-2 stimulated STAT5 phosphorylation in Tall-1 human T cell line (JAK3); assay: Cellular JAK3 potency assay: inhibition of IL-2 stimulated pSTAT5 in Tall-1 T cells; format: cell-based; details: IL-2 stimulated pSTAT5, Tall-1 T cells
Summary of the method: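 AlphaLISA SureFire Ultra measures STAT5 Tyr694/699 phosphorylation in lysed Tall-1 human T cells. Cells were exposed to compound for 1 h at 37 °C before a 30 min IL-2 challenge (300 ng/ml final). Values are pIC50 means with standard deviation from signal-versus-concentration curves.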

JAK1 = JAK1 (Homo sapiens (Human), UniProt P23458); assay: Biochemical JAK1 kinase assay (LanthaScreen)
Summary of the method: as §1

Caco-2 cell monolayers = assay: Caco-2 permeation assay; format: in vitro ADME; details: 5 μM, A-B direction, with Verapamil (25 μM)
Summary of the method: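 Passive A-to-B permeability with P-gp inhibited by verapamil (25 μM); compound at 5 μM, n=2. Both compartments sampled at t0 and t120 and quantified by LC-MS/MS, giving apparent permeability in cm/sec from flux, area and concentration.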

JAK2 = JAK2 (Homo sapiens (Human), UniProt O60674); assay: Biochemical JAK2 kinase assay (LanthaScreen)
Summary of the method: as §1

Chain of JAK1 (P23458 whole entry): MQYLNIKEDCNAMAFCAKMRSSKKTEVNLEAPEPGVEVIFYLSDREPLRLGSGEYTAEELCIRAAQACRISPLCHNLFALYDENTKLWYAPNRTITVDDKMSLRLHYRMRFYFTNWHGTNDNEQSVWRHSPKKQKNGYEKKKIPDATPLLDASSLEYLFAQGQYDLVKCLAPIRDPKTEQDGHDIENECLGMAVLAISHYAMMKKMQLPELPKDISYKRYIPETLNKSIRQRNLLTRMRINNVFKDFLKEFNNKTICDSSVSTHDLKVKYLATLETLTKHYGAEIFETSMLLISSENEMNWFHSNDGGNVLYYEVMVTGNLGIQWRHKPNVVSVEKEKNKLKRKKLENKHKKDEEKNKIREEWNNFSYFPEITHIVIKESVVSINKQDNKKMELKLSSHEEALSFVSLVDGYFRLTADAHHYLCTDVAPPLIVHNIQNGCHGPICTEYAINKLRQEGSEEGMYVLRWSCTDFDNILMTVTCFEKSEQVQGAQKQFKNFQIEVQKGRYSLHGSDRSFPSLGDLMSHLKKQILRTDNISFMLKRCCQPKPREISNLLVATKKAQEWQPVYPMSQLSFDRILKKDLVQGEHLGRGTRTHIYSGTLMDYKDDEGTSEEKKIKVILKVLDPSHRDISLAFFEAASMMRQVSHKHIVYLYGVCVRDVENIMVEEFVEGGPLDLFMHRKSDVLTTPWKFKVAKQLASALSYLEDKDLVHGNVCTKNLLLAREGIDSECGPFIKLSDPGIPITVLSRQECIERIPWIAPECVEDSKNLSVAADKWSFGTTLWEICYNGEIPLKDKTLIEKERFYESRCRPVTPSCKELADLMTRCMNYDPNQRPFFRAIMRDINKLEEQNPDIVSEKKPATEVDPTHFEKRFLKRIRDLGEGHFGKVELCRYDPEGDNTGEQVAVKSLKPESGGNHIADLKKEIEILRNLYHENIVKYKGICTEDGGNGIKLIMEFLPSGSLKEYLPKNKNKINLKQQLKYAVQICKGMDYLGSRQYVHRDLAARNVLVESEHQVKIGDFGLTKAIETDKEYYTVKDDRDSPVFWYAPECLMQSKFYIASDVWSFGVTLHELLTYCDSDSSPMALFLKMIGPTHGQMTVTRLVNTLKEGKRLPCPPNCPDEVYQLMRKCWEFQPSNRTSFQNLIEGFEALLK
Chain of JAK2 (O60674 whole entry): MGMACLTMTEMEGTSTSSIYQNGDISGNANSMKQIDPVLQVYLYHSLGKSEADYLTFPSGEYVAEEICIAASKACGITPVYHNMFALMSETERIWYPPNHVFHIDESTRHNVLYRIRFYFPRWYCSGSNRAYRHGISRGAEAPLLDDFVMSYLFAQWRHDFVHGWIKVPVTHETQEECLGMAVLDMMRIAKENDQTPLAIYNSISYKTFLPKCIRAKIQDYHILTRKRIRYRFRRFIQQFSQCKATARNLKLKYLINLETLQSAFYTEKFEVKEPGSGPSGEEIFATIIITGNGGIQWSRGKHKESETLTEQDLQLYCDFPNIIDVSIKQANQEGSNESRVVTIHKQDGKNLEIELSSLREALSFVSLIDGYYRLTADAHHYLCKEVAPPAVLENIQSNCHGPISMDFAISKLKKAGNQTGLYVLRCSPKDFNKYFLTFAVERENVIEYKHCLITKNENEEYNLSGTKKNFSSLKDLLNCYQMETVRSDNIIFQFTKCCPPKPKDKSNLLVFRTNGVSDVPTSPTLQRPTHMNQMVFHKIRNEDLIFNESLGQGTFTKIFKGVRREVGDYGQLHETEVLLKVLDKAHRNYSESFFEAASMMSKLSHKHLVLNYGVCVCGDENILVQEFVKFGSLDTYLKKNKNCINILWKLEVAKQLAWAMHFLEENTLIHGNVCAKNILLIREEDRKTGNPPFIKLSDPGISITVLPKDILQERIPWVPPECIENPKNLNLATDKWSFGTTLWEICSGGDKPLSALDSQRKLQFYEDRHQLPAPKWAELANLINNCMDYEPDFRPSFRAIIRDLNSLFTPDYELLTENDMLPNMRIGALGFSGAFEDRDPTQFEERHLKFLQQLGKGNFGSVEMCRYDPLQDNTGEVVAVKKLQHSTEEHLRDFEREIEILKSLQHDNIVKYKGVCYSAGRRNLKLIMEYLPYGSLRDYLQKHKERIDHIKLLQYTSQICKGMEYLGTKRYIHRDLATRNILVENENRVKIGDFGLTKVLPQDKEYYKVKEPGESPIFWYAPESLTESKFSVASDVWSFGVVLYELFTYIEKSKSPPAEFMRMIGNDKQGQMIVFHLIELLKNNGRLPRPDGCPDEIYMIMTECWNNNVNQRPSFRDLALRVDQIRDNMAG
Chain of JAK3 (P52333 whole entry): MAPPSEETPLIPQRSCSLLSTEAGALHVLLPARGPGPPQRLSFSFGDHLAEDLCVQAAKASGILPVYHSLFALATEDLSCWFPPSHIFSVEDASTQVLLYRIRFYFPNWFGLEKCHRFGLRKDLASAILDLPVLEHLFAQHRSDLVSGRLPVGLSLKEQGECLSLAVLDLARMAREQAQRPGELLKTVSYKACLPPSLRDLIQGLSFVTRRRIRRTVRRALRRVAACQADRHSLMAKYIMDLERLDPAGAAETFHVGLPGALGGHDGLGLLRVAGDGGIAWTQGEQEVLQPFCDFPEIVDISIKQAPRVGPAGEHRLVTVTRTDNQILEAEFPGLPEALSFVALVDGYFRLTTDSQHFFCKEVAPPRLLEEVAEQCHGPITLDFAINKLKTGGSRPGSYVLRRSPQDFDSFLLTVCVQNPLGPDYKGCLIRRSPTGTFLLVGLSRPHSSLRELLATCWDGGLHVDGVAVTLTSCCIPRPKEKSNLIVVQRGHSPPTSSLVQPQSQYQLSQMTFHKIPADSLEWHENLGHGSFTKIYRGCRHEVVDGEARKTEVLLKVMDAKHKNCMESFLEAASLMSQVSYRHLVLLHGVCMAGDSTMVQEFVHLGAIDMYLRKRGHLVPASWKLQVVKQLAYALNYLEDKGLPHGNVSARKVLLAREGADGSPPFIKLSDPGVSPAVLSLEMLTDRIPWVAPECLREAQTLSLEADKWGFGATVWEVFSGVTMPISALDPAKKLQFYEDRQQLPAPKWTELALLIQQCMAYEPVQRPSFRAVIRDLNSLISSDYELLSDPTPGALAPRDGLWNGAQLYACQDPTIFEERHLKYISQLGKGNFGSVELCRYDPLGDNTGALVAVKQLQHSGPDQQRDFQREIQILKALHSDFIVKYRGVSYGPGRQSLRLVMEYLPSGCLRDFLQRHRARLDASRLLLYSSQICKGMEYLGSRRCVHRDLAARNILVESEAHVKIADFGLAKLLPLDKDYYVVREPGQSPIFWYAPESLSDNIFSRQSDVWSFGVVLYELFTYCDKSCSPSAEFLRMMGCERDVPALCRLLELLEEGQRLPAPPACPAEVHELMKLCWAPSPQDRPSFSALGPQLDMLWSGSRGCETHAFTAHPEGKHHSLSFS
Chain of Tyk2 (P29597 whole entry): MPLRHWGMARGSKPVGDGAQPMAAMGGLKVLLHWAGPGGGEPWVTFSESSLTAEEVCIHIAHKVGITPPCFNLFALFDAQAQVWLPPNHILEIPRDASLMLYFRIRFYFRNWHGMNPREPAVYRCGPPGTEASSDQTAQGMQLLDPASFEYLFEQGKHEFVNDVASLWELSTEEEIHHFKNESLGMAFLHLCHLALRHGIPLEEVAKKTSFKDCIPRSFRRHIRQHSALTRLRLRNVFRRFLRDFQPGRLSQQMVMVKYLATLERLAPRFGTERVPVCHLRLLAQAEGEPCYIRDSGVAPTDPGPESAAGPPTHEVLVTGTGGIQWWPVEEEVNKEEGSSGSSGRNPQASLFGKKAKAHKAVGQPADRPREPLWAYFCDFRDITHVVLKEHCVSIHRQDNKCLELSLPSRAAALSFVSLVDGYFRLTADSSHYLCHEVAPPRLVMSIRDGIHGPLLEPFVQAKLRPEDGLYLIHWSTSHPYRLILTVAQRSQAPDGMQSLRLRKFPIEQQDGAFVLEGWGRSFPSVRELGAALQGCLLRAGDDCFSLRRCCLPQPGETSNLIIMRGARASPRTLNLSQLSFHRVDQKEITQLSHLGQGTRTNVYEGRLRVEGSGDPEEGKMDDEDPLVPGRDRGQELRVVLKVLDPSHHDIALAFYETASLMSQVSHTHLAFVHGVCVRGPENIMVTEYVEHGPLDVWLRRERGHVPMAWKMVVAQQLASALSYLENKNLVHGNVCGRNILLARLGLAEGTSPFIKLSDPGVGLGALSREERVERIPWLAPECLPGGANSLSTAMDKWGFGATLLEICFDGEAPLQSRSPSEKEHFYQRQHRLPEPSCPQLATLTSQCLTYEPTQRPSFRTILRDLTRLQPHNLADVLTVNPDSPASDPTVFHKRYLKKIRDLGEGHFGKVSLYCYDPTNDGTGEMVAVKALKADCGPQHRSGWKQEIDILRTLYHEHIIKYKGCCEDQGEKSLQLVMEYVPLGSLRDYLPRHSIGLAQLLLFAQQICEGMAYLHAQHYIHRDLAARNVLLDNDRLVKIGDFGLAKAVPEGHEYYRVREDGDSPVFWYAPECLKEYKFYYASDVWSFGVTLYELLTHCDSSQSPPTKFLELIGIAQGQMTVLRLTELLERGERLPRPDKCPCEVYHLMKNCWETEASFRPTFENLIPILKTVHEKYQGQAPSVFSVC

SMILES | Tyk 2 (pKi) (Tyk2) | JAK 3 (pKi) (JAK3) | JAK3 (pKi)-JAK1 (pKi) (JAK3) | Tall-1 (pIC50) [1] | JAK 1 (pKi) (JAK1) | Caco Kp (Caco-2 cell monolayers) | JAK 2 (pKi) (JAK2)
C=CC(=O)N1CC(CCn2c(=O)ccc3cnc(Nc4ccc(N5CCN(C(=O)OCCOC)CC5)cc4)nc32)C1 [Example 99] | E (E represents a pKi value of 7 or below (Ki of 100 nM or above)) | A (A represents a pKi value≥10 (Ki≤0.1 nM)) | A (A represents a value of 3 or above) | B (B represents a pC50 value between 6.7 (included) and 7.5 (IC50 between 200 nM and 32 nM)) | E (E represents a pKi value of 7 or below (Ki of 100 nM or above)) | A (A represents a value below 5×10^−6 cm/sec) | E (E represents a pKi value of 7 or below (Ki of 100 nM or above))
C=CC(=O)N1CC(CCn2c(=O)ccc3cnc(Nc4ccc(N5CCN(C(=O)OC(C)C)CC5)cc4)nc32)C1 [Example 100] | E (E represents a pKi value of 7 or below (Ki of 100 nM or above)) | A (A represents a pKi value≥10 (Ki≤0.1 nM)) | A (A represents a value of 3 or above) | A (A represents a pIC50 value≥7.5 (IC50≤32 nM)) | E (E represents a pKi value of 7 or below (Ki of 100 nM or above)) | A (A represents a value below 5×10^−6 cm/sec) | E (E represents a pKi value of 7 or below (Ki of 100 nM or above))
C=CC(=O)N1CC(CCn2c(=O)ccc3cnc(Nc4ccc(N5CCN(S(=O)(=O)CC#N)CC5)cc4)nc32)C1 [Example 101] | E (E represents a pKi value of 7 or below (Ki of 100 nM or above)) | A (A represents a pKi value≥10 (Ki≤0.1 nM)) | A (A represents a value of 3 or above) | B (B represents a pC50 value between 6.7 (included) and 7.5 (IC50 between 200 nM and 32 nM)) | E (E represents a pKi value of 7 or below (Ki of 100 nM or above)) | A (A represents a value below 5×10^−6 cm/sec) | E (E represents a pKi value of 7 or below (Ki of 100 nM or above))
C=CC(=O)N1CC(CCn2c(=O)ccc3cnc(Nc4ccc(N5CCN(C(=O)[C@@H](C)O)CC5)cc4)nc32)C1 [Example 105] | E (E represents a pKi value of 7 or below (Ki of 100 nM or above)) | A (A represents a pKi value≥10 (Ki≤0.1 nM)) | A (A represents a value of 3 or above) | B (B represents a pC50 value between 6.7 (included) and 7.5 (IC50 between 200 nM and 32 nM)) | E (E represents a pKi value of 7 or below (Ki of 100 nM or above)) | A (A represents a value below 5×10^−6 cm/sec) | E (E represents a pKi value of 7 or below (Ki of 100 nM or above))
C=CC(=O)N1CC(CCn2c(=O)ccc3cnc(Nc4ccc(N5CCN(C(=O)[C@H](C)O)CC5)cc4)nc32)C1 [Example 106] | E (E represents a pKi value of 7 or below (Ki of 100 nM or above)) | A (A represents a pKi value≥10 (Ki≤0.1 nM)) | A (A represents a value of 3 or above) | B (B represents a pC50 value between 6.7 (included) and 7.5 (IC50 between 200 nM and 32 nM)) | E (E represents a pKi value of 7 or below (Ki of 100 nM or above)) | A (A represents a value below 5×10^−6 cm/sec) | E (E represents a pKi value of 7 or below (Ki of 100 nM or above))
C=CC(=O)N1CC(CCn2c(=O)ccc3cnc(Nc4cccc(N5CCN(C(=O)COC)CC5)c4)nc32)C1 [Example 108] | E (E represents a pKi value of 7 or below (Ki of 100 nM or above)) | B (B represents pKi value between 9 and 10 (Ki between 1 nM and 0.1 nM)) | A (A represents a value of 3 or above) | B (B represents a pC50 value between 6.7 (included) and 7.5 (IC50 between 200 nM and 32 nM)) | E (E represents a pKi value of 7 or below (Ki of 100 nM or above)) | A (A represents a value below 5×10^−6 cm/sec) | E (E represents a pKi value of 7 or below (Ki of 100 nM or above))
C=CC(=O)N1CC(CCn2c(=O)ccc3cnc(Nc4ccc(N5CCN(C(=O)C(F)(F)F)CC5)cc4)nc32)C1 [Example 109] | E (E represents a pKi value of 7 or below (Ki of 100 nM or above)) | B (B represents pKi value between 9 and 10 (Ki between 1 nM and 0.1 nM)) | B (B represents a value of 2.5 to 3) | B (B represents a pC50 value between 6.7 (included) and 7.5 (IC50 between 200 nM and 32 nM)) | D (D represents a pKi value between 7 and 8 (Ki between 100 nM and 10 nM)) | C (C represents a value between 10×10^−6 and 30×10^−6 cm/sec) | E (E represents a pKi value of 7 or below (Ki of 100 nM or above))
C=CC(=O)N1CC(CCn2c(=O)ccc3cnc(Nc4ccc(N5CCN(CCOCC)CC5)cc4)nc32)C1 [Example 117] | E (E represents a pKi value of 7 or below (Ki of 100 nM or above)) | A (A represents a pKi value≥10 (Ki≤0.1 nM)) | A (A represents a value of 3 or above) | A (A represents a pIC50 value≥7.5 (IC50≤32 nM)) | E (E represents a pKi value of 7 or below (Ki of 100 nM or above)) | C (C represents a value between 10×10^−6 and 30×10^−6 cm/sec) | E (E represents a pKi value of 7 or below (Ki of 100 nM or above))
C=CC(=O)N1CC(CCn2c(=O)ccc3cnc(Nc4cccc(N5CCN(C(=O)OC)CC5)c4)nc32)C1 [Example 123] | E (E represents a pKi value of 7 or below (Ki of 100 nM or above)) | B (B represents pKi value between 9 and 10 (Ki between 1 nM and 0.1 nM)) | A (A represents a value of 3 or above) | B (B represents a pC50 value between 6.7 (included) and 7.5 (IC50 between 200 nM and 32 nM)) | E (E represents a pKi value of 7 or below (Ki of 100 nM or above)) | C (C represents a value between 10×10^−6 and 30×10^−6 cm/sec) | E (E represents a pKi value of 7 or below (Ki of 100 nM or above))
C=CC(=O)N1CC(CCn2c(=O)ccc3cnc(Nc4cccc(N5CCN(C(=O)N(C)C)CC5)c4)nc32)C1 [Example 124] | E (E represents a pKi value of 7 or below (Ki of 100 nM or above)) | A (A represents a pKi value≥10 (Ki≤0.1 nM)) | A (A represents a value of 3 or above) | B (B represents a pC50 value between 6.7 (included) and 7.5 (IC50 between 200 nM and 32 nM)) | E (E represents a pKi value of 7 or below (Ki of 100 nM or above)) | B (B represents a value between 5×10^−6 and 10×10^−6 cm/sec) | E (E represents a pKi value of 7 or below (Ki of 100 nM or above))
C=CC(=O)N1CC(CCn2c(=O)ccc3cnc(Nc4cccc(CN5CCN(S(=O)(=O)CC#N)CC5)c4)nc32)C1 [Example 125] | E (E represents a pKi value of 7 or below (Ki of 100 nM or above)) | A (A represents a pKi value≥10 (Ki≤0.1 nM)) | A (A represents a value of 3 or above) | B (B represents a pC50 value between 6.7 (included) and 7.5 (IC50 between 200 nM and 32 nM)) | E (E represents a pKi value of 7 or below (Ki of 100 nM or above)) | B (B represents a value between 5×10^−6 and 10×10^−6 cm/sec) | E (E represents a pKi value of 7 or below (Ki of 100 nM or above))
C=CC(=O)N1CC(CCn2c(=O)ccc3cnc(Nc4cccc(N5CCN(S(C)(=O)=O)CC5)c4)nc32)C1 [Example 127] | E (E represents a pKi value of 7 or below (Ki of 100 nM or above)) | A (A represents a pKi value≥10 (Ki≤0.1 nM)) | A (A represents a value of 3 or above) | B (B represents a pC50 value between 6.7 (included) and 7.5 (IC50 between 200 nM and 32 nM)) | E (E represents a pKi value of 7 or below (Ki of 100 nM or above)) | A (A represents a value below 5×10^−6 cm/sec) | E (E represents a pKi value of 7 or below (Ki of 100 nM or above))
C=CC(=O)N1CCN(CCn2c(=O)ccc3cnc(Nc4ccc(N5CCN(S(C)(=O)=O)CC5)cc4)nc32)CC1 [Example 130] | E (E represents a pKi value of 7 or below (Ki of 100 nM or above)) | B (B represents pKi value between 9 and 10 (Ki between 1 nM and 0.1 nM)) | A (A represents a value of 3 or above) | B (B represents a pC50 value between 6.7 (included) and 7.5 (IC50 between 200 nM and 32 nM)) | E (E represents a pKi value of 7 or below (Ki of 100 nM or above)) | A (A represents a value below 5×10^−6 cm/sec) | E (E represents a pKi value of 7 or below (Ki of 100 nM or above))

Reference: patent publication US11697648B2, “Fused pyrimidine pyridinone compounds as JAK inhibitors” (THERAVANCE BIOPHARMA R&D IP, LLC, priority 2019, dated 2023)
